Assay results reported in patent US8703811B2, “Small molecule inhibitors of Plasmodium falciparum dihydroorotate dehydrogenase” (Genzyme Corporation, priority 2008, dated 2014).
Like-named read-outs stand apart in the source and are kept apart here.

What was measured:
P. falciparum Dd2 = assay: Inhibition of in vitro P. falciparum culture, [3H]-hypoxanthine uptake, Dd2; format: cell-based
Experimental: (§1) P. falciparum strains D10, 3D7, HB3, and Dd2 were obtained from the Malaria Research and Reference Reagent Resource Center (Manassas, Va.). The parasite strains were maintained in vitro by method of Trager and Jensen. The inhibition of P. falciparum growth in the presence of drug was assessed by the relative reduction of [^3H]-hypoxanthine uptake as previously described. Inhibition data were fitted to Equation 1 using non-linear regression analysis except that the relative velocity of parasite growth was substituted for the rate of product formation.

pfDHODH = pfDHODH (Plasmodium falciparum (isolate 3D7), UniProt Q08210); assay: DHODH chromogen reduction (DCIP) assay, pfDHODH; format: biochemical, P. falciparum
Sequence of pfDHODH (Q08210 159-565 limits assumed): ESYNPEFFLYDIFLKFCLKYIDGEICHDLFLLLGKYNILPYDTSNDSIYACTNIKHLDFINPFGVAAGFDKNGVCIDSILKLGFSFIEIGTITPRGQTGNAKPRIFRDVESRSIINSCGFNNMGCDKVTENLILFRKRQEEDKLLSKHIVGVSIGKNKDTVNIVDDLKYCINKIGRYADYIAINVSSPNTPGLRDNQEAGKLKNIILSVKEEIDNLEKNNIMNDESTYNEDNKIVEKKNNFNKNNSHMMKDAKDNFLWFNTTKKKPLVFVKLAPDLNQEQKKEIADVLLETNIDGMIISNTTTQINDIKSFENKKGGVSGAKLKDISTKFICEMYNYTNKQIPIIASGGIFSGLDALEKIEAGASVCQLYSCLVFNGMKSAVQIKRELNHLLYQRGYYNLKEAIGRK
Text: (§2) Type 2 DHODH activity was monitored with either the direct assay measuring the formation of orotate or via a chromogen reduction assay using DCIP. Although the extinction coefficient and absorption wavelength are preferable for the chromogen reduction assay, the inorganic electron acceptor DCIP can be utilized by DHODH as the final electron acceptor in lieu of CoQn when the endogenous substrate is at a low concentration. As such, the direct assay was used to measure the binding affinity of pfDHODH to CoQD and L-DHO. The enzymatic reaction was performed by varying the L-DHO concentration (1-400 μM) or CoQD concentration (1-200 μM) while keeping the other substrate constant and in excess.
(§3) Substrate specificity and enzyme inhibition data was analyzed with GraphPad Prism Version 4 for Windows (GraphPad Software). Kinetic constants were calculated by non-linear regression fitting of the data to the Michaelis-Menten equation [36]. IC50 values were determined by non-linear regression fitting of the data to Equation 1: […]

hsDHODH = hsDHODH (Homo sapiens (Human), UniProt Q02127); assay: DCIP assay, hsDHODH; format: biochemical; conditions: Table 2b; read-out: Hu (human DHODH) IC50
Sequence of hsDHODH (Q02127 29-395 limits assumed): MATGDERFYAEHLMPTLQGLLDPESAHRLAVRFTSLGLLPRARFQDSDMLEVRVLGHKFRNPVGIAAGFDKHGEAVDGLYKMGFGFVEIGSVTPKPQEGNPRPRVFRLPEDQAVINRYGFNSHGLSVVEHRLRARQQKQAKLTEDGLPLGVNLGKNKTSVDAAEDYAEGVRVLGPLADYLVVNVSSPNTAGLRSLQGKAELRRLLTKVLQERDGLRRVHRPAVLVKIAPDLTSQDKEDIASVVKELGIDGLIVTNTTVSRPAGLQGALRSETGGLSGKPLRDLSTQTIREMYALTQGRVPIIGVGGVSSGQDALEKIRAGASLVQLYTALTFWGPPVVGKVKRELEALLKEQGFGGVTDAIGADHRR
Text: as §2, with “excess. The formation of orotate was measured continuously at 296 nm (ε296=4.3 mM^−1 cm^−1). Inhibition of DHODH by small molecules was evaluated using the chromogen based assay with a final substrate concentration of 200 μM L-DHO, 18 μM CoQD, and 100 μM DCIP, unless otherwise noted. The reduction of DCIP was monitored at 600 nm (ε600=18.8 mM^−1 cm^−1).” for “excess.”
as §3

P. falciparum 3D7 = assay: Inhibition of in vitro P. falciparum culture, [3H]-hypoxanthine uptake, 3D7; format: cell-based
Experimental: as §1

[1] = Plasmodium falciparum, DD2, Table 2b, read-out: Dd2 EC50
[2] = Table 2b, read-out: pfDHODH IC50
[3] = Plasmodium falciparum, 3D7, Table 2b, read-out: 3D7 EC50

Row | SMILES | EC50 (P. falciparum Dd2; [1]) [nM] | IC50 (pfDHODH; [2]) [nM] | IC50 (hsDHODH) [nM] | EC50 (P. falciparum 3D7; [3]) [nM] | EC50 (P. falciparum Dd2; Plasmodium falciparum, DD2, read-out: Dd2 EC50, Table 2b) [nM] | IC50 (pfDHODH; pfDHODH IC50, Table 2b) [nM] | EC50 (P. falciparum 3D7; Plasmodium falciparum, 3D7, read-out: 3D7 EC50, Table 2b) [nM] | EC50 (P. falciparum Dd2; Table 2b, read-out: Dd2 EC50) [nM] | EC50 (P. falciparum 3D7; Table 2b, read-out: 3D7 EC50) [nM]
1 | CCNC(=O)c1ccc(-n2c(CC)nc3cc(F)ccc32)s1 [Compound 69] | 361 | 178 | > 30000 | 226 | – | – | – | – | –
2 | CNC(=O)c1ccc(-n2cnc3ccccc32)s1 [Compound 24] | 422 | 1080 | > 30000 | 276 | – | – | – | – | –
3 | CCNC(=O)c1ccc(-n2cnc3ccccc32)s1 [Compound 25] | 154 | 145 | > 30000 | 102 | – | – | – | – | –
4 | CCNC(=O)c1ccc(-n2cnc3cc(C)ccc32)s1 [Compound 61] | 39 | 75 | 21200 | 27 | – | – | – | – | –
5 | Cc1cccc2c1nc(C)n2-c1ccc(C(=O)NC2CC2)s1 [Compound 65] | 13 | 42 | > 30000 | 9 | – | – | – | – | –
6 | CCc1nc2cc(F)ccc2n1-c1ccc(C(=O)NC2CC2)s1 [Compound 66] | 253 | 67 | > 30000 | 136 | – | – | – | – | –
7 | CCNC(=O)c1ccc(-n2c(CC)nc3ccccc32)s1 [Compound 63] | 146 | 137 | > 30000 | 141 | – | – | – | – | –
8 | CCCc1nc2ccccc2n1-c1ccc(C(=O)NC2CC2)s1 [Compound 67] | 629 | 180 | 25600 | 389 | – | – | – | – | –
9 | Cc1nc(-c2ccccc2)cn1-c1ccc(C(=O)NC2CC2)s1 [Compound 74] | 206 | 220 | > 30000 | 124 | – | – | – | – | –
10 | Cc1nc2cc(Cl)ccc2n1-c1ccc(C(=O)NC2CC2)s1 [Compound 40] | – | – | > 30000 | – | 120 | 58 | 88 | – | –
11 | Cc1nc(-c2ccc(F)cc2)cn1-c1ccc(C(=O)NC2CC2)s1 [Compound 76] | 217 | 240 | > 30000 | 226 | – | – | – | – | –
12 | CCCCC(=O)c1ccc(-n2cnc3ccccc32)s1 [Compound 84, 1-[5-(1H-benzimidazol-1-yl)-2-thienyl]pentan-1-one] | 20000 | > 30000 | > 30000 | > 40000 | – | – | – | – | –
13 | CCCc1nc2ccccc2n1-c1ccc(C(=O)NCC)s1 [Compound 59] | 467 | 334 | 19400 | 382 | – | – | – | – | –
14 | CC(C)NC(=O)c1ccc(-n2cnc3ccccc32)s1 [Compound 36] | 812 | 684 | > 30000 | 579 | – | – | – | – | –
15 | CCNC(=O)c1ccc(-n2c(C)nc3ccccc32)s1 [Compound 33] | – | 191 | > 30000 | – | – | – | – | 223 | 113
16 | Cc1ccc2c(c1)nc(C)n2-c1ccc(C(=O)NC2CC2)s1 [Compound 44] | 48 | 56 | > 30000 | 34 | – | – | – | – | –
17 | COc1ccc2c(c1)nc(C)n2-c1ccc(C(=O)NC2CC2)s1 [Compound 39] | 247 | 212 | 24600 | 180 | – | – | – | – | –
18 | Cc1nc2ccccc2n1-c1ccc(C(=O)NC2CC2)s1 [Compound 31] | 106 | 99 | > 30000 | 66 | – | – | – | – | –
19 | Cc1nc2ccccc2n1-c1ccc(C(=O)NC2CC2)s1 [Compound 32] | – | 74 | > 30000 | – | – | – | – | 114 | 105
20 | Cc1nc2cc(C(F)(F)F)ccc2n1-c1ccc(C(=O)NC2CC2)s1 [Compound 64] | 12 | 41 | 28000 | 8 | – | – | – | – | –
21 | CCNC(=O)c1ccc(-n2cc(-c3ccccc3)nc2C)s1 [Compound 75] | 283 | 416 | > 30000 | 278 | – | – | – | – | –
22 | CCc1nc2ccccc2n1-c1ccc(C(=O)NC2CC2)s1 [Compound 49] | 185 | 113 | > 30000 | 125 | – | – | – | – | –

Row | SMILES | EC50 (P. falciparum Dd2; [1]) [nM] | IC50 (pfDHODH; [2]) [nM] | IC50 (hsDHODH) [nM] | EC50 (P. falciparum 3D7; [3]) [nM] | EC50 (P. falciparum Dd2; Plasmodium falciparum, DD2, read-out: Dd2 EC50, Table 2b) [nM] | IC50 (pfDHODH; pfDHODH IC50, Table 2b) [nM] | EC50 (P. falciparum 3D7; Plasmodium falciparum, 3D7, read-out: 3D7 EC50, Table 2b) [nM] | EC50 (P. falciparum Dd2; Table 2b, read-out: Dd2 EC50) [nM] | EC50 (P. falciparum 3D7; Table 2b, read-out: 3D7 EC50) [nM]
23 | CCCNC(=O)c1ccc(-n2c(C)nc3cc(Cl)ccc32)s1 [Compound 51] | 314 | 239 | > 30000 | 158 | – | – | – | – | –
24 | CCNC(=O)c1ccc(-n2cnc3cc(F)ccc32)s1 [Compound 68] | 132 | 105 | > 30000 | 90 | – | – | – | – | –
25 | Cc1nc2cc(F)ccc2n1-c1ccc(C(=O)NC2CC2)s1 [Compound 42] | – | 88 | > 30000 | – | – | – | – | 150 | 104
26 | Cc1nc2cc(F)ccc2n1-c1ccc(C(=O)NC2CC2)s1 [Compound 43] | – | 104 | 20300 | – | – | – | – | 36 | 39
27 | Cc1nc2cc3c(cc2n1-c1ccc(C(=O)NC2CC2)s1)OCO3 [Compound 90] | 174 | 116 | > 30000 | 220 | – | – | – | – | –
28 | O=C(NC1CCCC1)c1ccc(-n2cnc3ccccc32)s1 [Compound 35] | 5500 | 2510 | > 30000 | 4400 | – | – | – | – | –
29 | CCNC(=O)c1ccc(-n2c(C)nc3cc(F)ccc32)s1 [Compound 53] | 106 | 164 | > 30000 | 66 | – | – | – | – | –
30 | Cc1ccc2c(c1)ncn2-c1ccc(C(=O)NC2CC2)s1 [Compound 60] | 21 | 38 | 24600 | 20 | – | – | – | – | –
31 | O=C(NCCO)c1ccc(-n2cnc3ccccc32)s1 [Compound 30] | 6500 | 14000 | > 30000 | 5900 | – | – | – | – | –
32 | CCCNC(=O)c1ccc(-n2c(C)nc3cc(F)ccc32)s1 [Compound 50] | 538 | 499 | > 30000 | 255 | – | – | – | – | –
33 | Cc1nc2cc(OC(F)(F)F)ccc2n1-c1ccc(C(=O)NC2CC2)s1 [Compound 57] | 60 | 64 | > 30000 | 33 | – | – | – | – | –
34 | O=C(NC1CC1)c1ccc(-n2cnc3ccccc32)s1 [Compound 23] | 88 | 56 | > 30000 | 79 | – | – | – | – | –
35 | CC[C@@H](C)NC(=O)c1ccc(-n2cnc3ccccc32)s1 [Compound 47] | > 5000 | > 30000 | – | > 5000 | – | – | – | – | –
36 | CCCNC(=O)c1ccc(N2Cc3cccc(OC)c3Oc3ncccc32)s1 [Compound 22, 5-(10-methoxybenzo[f]pyrido[2,3-b][1,4]oxazepin-5(6H)-yl)-N-propylthiophene-2-carboxamide] | > 10000 | > 30000 | – | > 10000 | – | – | – | – | –
37 | O=C(c1ccc(-n2cnc3ccccc32)s1)N1CCCCC1 [Compound 34] | > 20000 | > 30000 | – | > 20000 | – | – | – | – | –
38 | O=C(NC1CCC1)c1ccc(-n2cnc3ccccc32)s1 [Compound 38] | 442 | 418 | > 30000 | 408 | – | – | – | – | –
39 | O=C(NC1CC1)c1ccc(-n2cnc3cc(F)ccc32)s1 [Compound 70] | 105 | 58 | > 30000 | 62 | – | – | – | – | –
40 | CCNC(=O)c1ccc(-n2c(C)nc3cc(C)ccc32)s1 [Compound 62] | 87 | 112 | > 30000 | 89 | – | – | – | – | –
41 | CCNC(=O)c1ccc(-n2c(C)nc3cc(Cl)ccc32)s1 [Compound 52] | 104 | 94 | > 30000 | 53 | – | – | – | – | –
42 | CCCNC(=O)c1ccc(N2CCSc3ncccc32)s1 [Compound 21, 5-(2,3-dihydro-1H-pyrido[2,3-b][1,4]thiazin-1-yl)-N-propylthiophene-2-carboxamide] | > 10000 | 13800 | – | > 10000 | – | – | – | – | –
43 | CCCNC(=O)c1ccc(-n2cnc3cc(Cl)ccc32)s1 [Compound 56] | – | 324 | > 30000 | 203 | – | – | – | – | –
44 | O=C(NC1CC1)c1ccc(-n2c(O)nc3ccccc32)s1 [Compound 45] | 5000 | > 30000 | – | 5000 | – | – | – | – | –
